Test results reported in the supplement of paper PMC10307832.

How the values were obtained:
Test in all cases: relative viability (nuclei count vs DMSO), 5 days (fraction); higher = more cells survive
AZ23 = compound: CC(C)Oc1cc(Nc2nc(N[C@@H](C)c3ccc(F)cn3)ncc2Cl)n[nH]1 [AZ23]
In short: (§1)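 Cells of lung cancer lines were placed in 1536-well plates and kept overnight at 37 °C. Pinning then delivered five library-drug doses (not always all listed), spaced by √10, onto plates anchored with vehicle, and the cells were left 5 days without changing medium. One step fixed, permeabilised and stained them with Hoechst, and MetaXpress counted nuclei in 4× images. Viability, as a median over plates, is treated-well nuclei divided by vehicle-well nuclei, with acceptance only at control CV below 25% and at least one doubling.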

HG-5-88-01 = compound: CC(C)S(=O)(=O)C1=CC=CC=C1NC2=NC(=NC(=C2Cl)N)NC3=C(C=C(C=C3)N4CCC(CC4)C(=O)N)OC [HG-5-88-01]
In short: as §1

Embelin = compound: CCCCCCCCCCCC1=C(O)C(=O)C=C(O)C1=O [Embelin]
In short: as §1

[1] = compound: C[C@@H]1CN(CC(=O)Nc2ccc3c(c2)Cc2cccc(-c4cc(=O)cc(N5CCOCC5)o4)c2S3)C[C@H](C)O1
In short: as §1

Vatalanib = compound: Clc1ccc(Nc2nnc(Cc3ccncc3)c3ccccc23)cc1 [Vatalanib]
In short: as §1

Cell Line | relative viability (AZ23; 0.01 µM) | relative viability (AZ23; 0.03162 µM) | relative viability (AZ23; 0.3162 µM) | relative viability (HG-5-88-01; 0.04 µM) | relative viability (HG-5-88-01; 0.1265 µM) | relative viability (HG-5-88-01; 0.4 µM) | relative viability (HG-5-88-01; 4 µM) | relative viability (Embelin; 0.08 µM) | relative viability (Embelin; 0.8 µM) | relative viability (Embelin; 2.53 µM) | relative viability (Embelin; 8 µM) | relative viability ([1]; 0.04 µM) | relative viability ([1]; 0.1265 µM) | relative viability ([1]; 0.4 µM) | relative viability ([1]; 4 µM) | relative viability (Vatalanib; 0.04 µM) | relative viability (Vatalanib; 0.1265 µM) | relative viability (Vatalanib; 0.4 µM) | relative viability (Vatalanib; 1.265 µM) | relative viability (Vatalanib; 4 µM) | relative viability (HG-5-88-01; 1.265 µM)
NCI-H1623 | 0.984 | 0.964 | 0.955 | 1.09 | 0.979 | 0.983 | 0.856 | 0.926 | 0.988 | 1.06 | 0.972 | 0.942 | 0.973 | 1.02 | 0.957 | 0.963 | 1.14 | 1.04 | 0.879 | 0.933 | 
NCI-H1648 | 0.794 | 1.05 | 0.788 | 0.809 | 0.728 | 0.878 | 0.451 | 0.963 | 1.21 | 0.92 | 0.954 | 0.871 | 0.796 | 1.06 | 0.757 | 0.958 | 0.938 | 0.893 | 0.889 | 0.939 | 0.368
NCI-H1650 | 0.826 | 1.17 | 1.12 | 0.904 | 0.92 | 0.812 | 0.723 | 0.994 | 1.08 | 0.942 | 0.877 | 0.95 | 0.999 | 0.949 | 0.769 | 1.06 | 0.851 | 0.799 | 0.818 | 0.851 | 0.871
NCI-H1651 | 0.947 | 1.05 | 1.05 | 0.994 | 0.993 | 0.986 | 1.07 | 0.992 | 1.03 | 1.03 | 0.946 | 0.954 | 0.954 | 1.03 | 0.981 | 1.01 | 0.935 | 0.955 | 0.92 | 0.958 | 0.976
NCI-H1666 | 0.988 | 1.03 | 0.976 | 1.03 | 1.03 | 0.847 | 0.864 | 0.939 | 1.06 | 0.976 | 1.01 | 0.983 | 1.05 | 1.03 | 0.903 | 0.958 | 1.03 | 1.04 | 1 | 0.981 | 0.869
NCI-H1703 |  | 0.879 | 0.943 | 0.778 | 0.983 | 0.663 | 0.954 | 0.99 | 1.79 | 0.899 | 0.838 | 1.26 | 0.763 | 0.797 | 0.668 | 1.12 | 0.754 | 1.14 | 0.527 | 0.363 | 0.941
NCI-H1734 | 1.03 | 1.01 | 0.983 | 0.88 | 0.978 | 0.959 | 1.1 | 1.05 | 1.23 | 1.19 | 0.874 | 1.01 | 1.03 | 1.04 | 1.12 | 0.977 | 0.916 | 1.11 | 0.95 | 1.06 | 0.886
NCI-H1755 | 1.09 | 1.05 | 1.06 | 1.02 | 1.03 | 0.99 | 1.01 | 0.986 | 1.03 | 1.02 | 0.892 | 1.01 | 0.986 | 1.03 | 1.01 | 1.03 | 0.959 | 0.966 | 0.944 | 0.99 | 1.02
NCI-H1792 | 0.788 | 1.07 | 1.1 | 1.01 | 1.08 | 1 | 1.03 | 0.924 | 1.07 | 1.11 | 1.06 | 0.895 | 0.8 | 0.9 | 0.797 | 0.912 | 0.707 | 0.861 | 0.827 | 0.782 | 0.834
NCI-H1793 | 1.1 | 1.07 | 1.07 |  | 0.942 | 0.985 | 0.792 | 0.918 | 1.08 | 1.06 | 0.431 | 1.01 | 0.866 | 1.05 | 0.581 | 0.902 | 0.879 | 1.07 | 0.839 | 0.774 | 0.668
NCI-H1915 | 1.1 | 1.06 | 1.01 | 1.03 | 1.06 | 1.01 | 0.745 | 1.08 | 1.07 | 1.04 | 0.983 | 0.966 | 0.985 | 1.01 | 0.748 | 1.05 | 0.943 | 1.01 | 0.981 | 0.992 | 1.13
NCI-H1944 | 0.971 | 1.13 | 1.05 | 0.988 | 1.01 | 0.913 | 0.902 | 1 | 1.07 | 1.06 | 0.961 |  | 0.958 | 1.03 | 0.952 | 0.987 | 0.848 | 1.1 | 1.01 | 0.907 | 0.972
NCI-H1975 | 1.13 | 1.09 | 0.971 | 0.951 | 0.972 | 0.835 | 0.454 | 1.03 | 0.959 | 0.94 | 1.04 | 0.932 | 0.901 | 0.935 | 0.738 | 0.972 | 0.919 | 1.01 | 0.787 | 0.841 | 0.844
NCI-H1993 | 0.926 | 0.834 | 0.991 | 0.879 | 0.998 | 0.9 | 0.861 | 1.05 | 0.888 | 1.05 | 0.843 | 1.07 | 0.96 | 0.761 | 0.938 | 0.818 | 0.871 | 0.923 | 0.748 | 0.815 | 0.611
NCI-H2009 | 1.01 | 1.1 | 1.09 | 1.05 | 1.07 | 0.931 | 0.947 | 1.01 | 1.19 | 0.959 | 1 | 1.05 | 1.01 | 0.935 | 0.766 | 1.15 | 0.928 | 1.1 | 0.952 | 0.98 | 0.951
NCI-H2023 |  | 1.11 | 1.13 | 1.04 | 0.958 | 0.795 | 0.633 | 1 | 0.926 | 1.07 | 0.736 | 1.04 | 0.937 | 0.773 | 0.681 | 1.02 | 0.88 | 1.12 | 0.893 | 0.933 | 0.725
